Patent US20170050957A1, “4-AMINO-6-(HETEROCYCLIC)PICOLINATES AND 6-AMINO-2-(HETEROCYCLIC)PYRIMIDINE-4-CARBOXYLATES AND THEIR USE AS HERBICIDES” (Dow AgroSciences LLC, priority 2013, published 2017)

Tested on: Wheat and Barley and test plant species
Test: Post-emergent Test III, herbicidal activity in wheat and barley (Table 17; visual injury, GR20/GR50/GR80/GR90)
Assay type: in vivo
Conditions: 21 d; for Visual Growth Reduction (%) 21 Days After Application, CIRAR / Visual Growth Reduction (%) 21 Days After Application, GALAP / Visual Growth Reduction (%) 21 Days After Application, HORVS / Visual Growth Reduction (%) 21 Days After Application, KCHSC / Visual Growth Reduction (%) 21 Days After Application, LAMPU / Visual Growth Reduction (%) 21 Days After Application, MATCH / Visual Growth Reduction (%) 21 Days After Application, PAPRH / Visual Growth Reduction (%) 21 Days After Application, SASKR / Visual Growth Reduction (%) 21 Days After Application, SINAR / Visual Growth Reduction (%) 21 Days After Application, TRZAS / Visual Growth Reduction (%) 21 Days After Application, VERPE / Visual Growth Reduction (%) 21 Days After Application, VIOTR: post-emergent
Summary of the method: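 Greenhouse-grown plants at second to third true leaf stage (about 18/17° C day/night, 14 h photoperiod) sprayed post-emergence with compound in acetone/DMSO/water-based mix with Agri-Dex crop oil and X-77 surfactant at 187 L/ha, at highest rate and 1/2× to 1/16× dilutions. Visual injury scored 0–100% versus untreated plants after 21 d; GR20/GR50/GR80/GR90 from probit analysis.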

COC(=O)c1nc(-c2ccc3cc[nH]c3c2F)cc(N)c1Cl [Compound 1.23, Methyl 4-amino-3-chloro-6-(7-fluoro-1H-indol-6-yl)picolinate]
Visual Growth Reduction (%) 21 Days After Application, CIRAR (CIRAR, 17.5 g ai/ha): G (0-29)
Visual Growth Reduction (%) 21 Days After Application, CIRAR (CIRAR, 35 g ai/ha): G (0-29)
Visual Growth Reduction (%) 21 Days After Application, CIRAR (CIRAR, 70 g ai/ha): G (0-29)
GR50, CIRAR (CIRAR, dose for 50 percent growth reduction, probit analysis): >140 g ai/ha
GR80, CIRAR (CIRAR, dose for 80 percent growth reduction, probit analysis): >140 g ai/ha
GR90, CIRAR (CIRAR, dose for 90 percent growth reduction, probit analysis): >140 g ai/ha
Visual Growth Reduction (%) 21 Days After Application, GALAP (GALAP, 17.5 g ai/ha): A (95-100)
Visual Growth Reduction (%) 21 Days After Application, GALAP (GALAP, 35 g ai/ha): A (95-100)
Visual Growth Reduction (%) 21 Days After Application, GALAP (GALAP, 70 g ai/ha): A (95-100)
GR50, GALAP (GALAP, dose for 50 percent growth reduction, probit analysis): 1 g ai/ha
GR80, GALAP (GALAP, dose for 80 percent growth reduction, probit analysis): 4 g ai/ha
GR90, GALAP (GALAP, dose for 90 percent growth reduction, probit analysis): 7 g ai/ha
Visual Growth Reduction (%) 21 Days After Application, HORVS (HORVS, 17.5 g ai/ha): G (0-29)
Visual Growth Reduction (%) 21 Days After Application, HORVS (HORVS, 35 g ai/ha): G (0-29)
Visual Growth Reduction (%) 21 Days After Application, HORVS (HORVS, 70 g ai/ha): G (0-29)
GR20, HORVS (HORVS, dose for 20 percent growth reduction, probit analysis): >140 g ai/ha
Visual Growth Reduction (%) 21 Days After Application, KCHSC (KCHSC, 17.5 g ai/ha): F (30-44)
Visual Growth Reduction (%) 21 Days After Application, KCHSC (KCHSC, 35 g ai/ha): E (45-59)
Visual Growth Reduction (%) 21 Days After Application, KCHSC (KCHSC, 70 g ai/ha): D (60-74)
GR50, KCHSC (KCHSC, dose for 50 percent growth reduction, probit analysis): 35 g ai/ha
GR80, KCHSC (KCHSC, dose for 80 percent growth reduction, probit analysis): 110 g ai/ha
GR90, KCHSC (KCHSC, dose for 90 percent growth reduction, probit analysis): >140 g ai/ha
Visual Growth Reduction (%) 21 Days After Application, LAMPU (LAMPU, 17.5 g ai/ha): B (85-94)
Visual Growth Reduction (%) 21 Days After Application, LAMPU (LAMPU, 35 g ai/ha): A (95-100)
Visual Growth Reduction (%) 21 Days After Application, LAMPU (LAMPU, 70 g ai/ha): A (95-100)
GR50, LAMPU (LAMPU, dose for 50 percent growth reduction, probit analysis): 3 g ai/ha
GR80, LAMPU (LAMPU, dose for 80 percent growth reduction, probit analysis): 6 g ai/ha
GR90, LAMPU (LAMPU, dose for 90 percent growth reduction, probit analysis): 9 g ai/ha
Visual Growth Reduction (%) 21 Days After Application, MATCH (17.5 g ai/ha): G (0-29)
Visual Growth Reduction (%) 21 Days After Application, MATCH (35 g ai/ha): G (0-29)
Visual Growth Reduction (%) 21 Days After Application, MATCH (70 g ai/ha): G (0-29)
Visual Growth Reduction (%) 21 Days After Application, PAPRH (PAPRH, 17.5 g ai/ha): D (60-74)
Visual Growth Reduction (%) 21 Days After Application, PAPRH (PAPRH, 35 g ai/ha): A (95-100)
Visual Growth Reduction (%) 21 Days After Application, PAPRH (PAPRH, 70 g ai/ha): A (95-100)
GR50, PAPRH (PAPRH, dose for 50 percent growth reduction, probit analysis): 11 g ai/ha
GR80, PAPRH (PAPRH, dose for 80 percent growth reduction, probit analysis): 17 g ai/ha
GR90, PAPRH (PAPRH, dose for 90 percent growth reduction, probit analysis): 22 g ai/ha
Visual Growth Reduction (%) 21 Days After Application, SASKR (SASKR, 17.5 g ai/ha): F (30-44)
Visual Growth Reduction (%) 21 Days After Application, SASKR (SASKR, 35 g ai/ha): E (45-59)
Visual Growth Reduction (%) 21 Days After Application, SASKR (SASKR, 70 g ai/ha): C (75-84)
GR50, SASKR (SASKR, dose for 50 percent growth reduction, probit analysis): 29 g ai/ha
GR80, SASKR (SASKR, dose for 80 percent growth reduction, probit analysis): 90 g ai/ha
GR90, SASKR (SASKR, dose for 90 percent growth reduction, probit analysis): >140 g ai/ha
Visual Growth Reduction (%) 21 Days After Application, SINAR (SINAR, 17.5 g ai/ha): C (75-84)
Visual Growth Reduction (%) 21 Days After Application, SINAR (SINAR, 35 g ai/ha): C (75-84)
Visual Growth Reduction (%) 21 Days After Application, SINAR (SINAR, 70 g ai/ha): A (95-100)
GR50, SINAR (SINAR, dose for 50 percent growth reduction, probit analysis): 3 g ai/ha
GR80, SINAR (SINAR, dose for 80 percent growth reduction, probit analysis): 14 g ai/ha
GR90, SINAR (SINAR, dose for 90 percent growth reduction, probit analysis): 32 g ai/ha
Visual Growth Reduction (%) 21 Days After Application, TRZAS (TRZAS, 17.5 g ai/ha): G (0-29)
Visual Growth Reduction (%) 21 Days After Application, TRZAS (TRZAS, 35 g ai/ha): G (0-29)
Visual Growth Reduction (%) 21 Days After Application, TRZAS (TRZAS, 70 g ai/ha): G (0-29)
GR20, TRZAS (TRZAS, dose for 20 percent growth reduction, probit analysis): 66 g ai/ha
Visual Growth Reduction (%) 21 Days After Application, VERPE (VERPE, 17.5 g ai/ha): B (85-94)
Visual Growth Reduction (%) 21 Days After Application, VERPE (VERPE, 35 g ai/ha): B (85-94)
Visual Growth Reduction (%) 21 Days After Application, VERPE (VERPE, 70 g ai/ha): A (95-100)
GR50, VERPE (VERPE, dose for 50 percent growth reduction, probit analysis): 1 g ai/ha
GR80, VERPE (VERPE, dose for 80 percent growth reduction, probit analysis): 8 g ai/ha
GR90, VERPE (VERPE, dose for 90 percent growth reduction, probit analysis): 21 g ai/ha
Visual Growth Reduction (%) 21 Days After Application, VIOTR (VIOTR, 17.5 g ai/ha): G (0-29)
Visual Growth Reduction (%) 21 Days After Application, VIOTR (VIOTR, 35 g ai/ha): E (45-59)
Visual Growth Reduction (%) 21 Days After Application, VIOTR (VIOTR, 70 g ai/ha): D (60-74)
GR50, VIOTR (VIOTR, dose for 50 percent growth reduction, probit analysis): 44 g ai/ha
GR80, VIOTR (VIOTR, dose for 80 percent growth reduction, probit analysis): 119 g ai/ha
GR90, VIOTR (VIOTR, dose for 90 percent growth reduction, probit analysis): >140 g ai/ha
